Test results from PubChem BioAssay AID1918991 (Molecular Pharmacology Branch, DTP, NCI, 2023).
Several values for one entry are separate records, joined by “and”; a condition that tells them apart may be missing. Identical values can stand only once.

Test system: 186277-243-T-J2-PDC complex spheroid growth
Test: Anticancer human tumor 186277-243-T-J2-PDC patient-derived colon adenocarcinoma cell line growth inhibition [AhR]
Details: for viability, T/C: stronger effect = lower value
Summary of the method: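 Spheroids combined tumor cells with HUVEC endothelial cells and human MSCs as stroma. AhR antagonists were paired with standard or investigational drugs, each dosed in half-log steps down from near clinical Cmax, or from 10 microM where Cmax was unknown.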

[1] = curve of first compound, second compound 0.1 µM
[2] = curve of first compound, second compound 0.316 µM
[3] = curve of first compound, second compound 1 µM
[4] = curve of first compound, second compound 3.16 µM
[5] = curve of first compound, second compound 10 µM
[6] = second compound 0.1 µM, first compound 0.0316 µM
[7] = second compound 0.1 µM, first compound 0.1 µM
[8] = second compound 0.1 µM, first compound 0.316 µM
[9] = second compound 0.1 µM, first compound 1 µM
[10] = second compound 0.1 µM, first compound 3.16 µM
[11] = second compound 0.1 µM, first compound 10 µM
[12] = second compound 0.316 µM, first compound 0.0316 µM
[13] = second compound 0.316 µM, first compound 0.1 µM
[14] = second compound 0.316 µM, first compound 0.316 µM
[15] = second compound 0.316 µM, first compound 1 µM
[16] = second compound 0.316 µM, first compound 3.16 µM
[17] = second compound 0.316 µM, first compound 10 µM
[18] = second compound 1 µM, first compound 0.0316 µM
[19] = second compound 1 µM, first compound 0.1 µM
[20] = second compound 1 µM, first compound 0.316 µM
[21] = second compound 1 µM, first compound 1 µM
[22] = second compound 1 µM, first compound 3.16 µM
[23] = second compound 1 µM, first compound 10 µM
[24] = second compound 3.16 µM, first compound 0.0316 µM
[25] = second compound 3.16 µM, first compound 0.1 µM
[26] = second compound 3.16 µM, first compound 0.316 µM
[27] = second compound 3.16 µM, first compound 1 µM
[28] = second compound 3.16 µM, first compound 3.16 µM
[29] = second compound 3.16 µM, first compound 10 µM
[30] = second compound 10 µM, first compound 0.0316 µM
[31] = second compound 10 µM, first compound 0.1 µM
[32] = second compound 10 µM, first compound 0.316 µM
[33] = second compound 10 µM, first compound 1 µM
[34] = second compound 10 µM, first compound 3.16 µM
[35] = second compound 10 µM, first compound 10 µM
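Further: spheroids exposed to compounds for seven days before the viability read.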
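Wherever viability, T/C is given: luminescent signal used as a stand-in for viable cell amount; 100% = DMSO vehicle control wells.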

CC1(C)CCC(CN2CCN(c3ccc(C(=O)NS(=O)(=O)c4ccc(NCC5CCOCC5)c([N+](=O)[O-])c4)c(Oc4cnc5[nH]ccc5c4)c3)CC2)=C(c2ccc(Cl)cc2)C1 + Cc1ccccc1N=Nc1ccc(NC(=O)c2ccnn2C)c(C)c1
IC50 [1]: 7.46 µM | IC50 [2]: 6.9 µM | IC50 [3]: 7.32 µM | IC50 [4]: 6.94 µM | IC50 [5]: 6.27 µM | viability, T/C [6]: 95.1% | viability, T/C [7]: 98.9% | viability, T/C [8]: 115% | viability, T/C [9]: 110% | viability, T/C [10]: 103% | viability, T/C [11]: 31.8% | viability, T/C [12]: 94.1% | viability, T/C [13]: 108% | viability, T/C [14]: 96.4% | viability, T/C [15]: 100% | viability, T/C [16]: 87.9% | viability, T/C [17]: 31.7% | viability, T/C [18]: 103% | viability, T/C [19]: 99.3% | viability, T/C [20]: 110% | viability, T/C [21]: 98.2% | viability, T/C [22]: 110% | viability, T/C [23]: 29.8% | viability, T/C [24]: 91.3% | viability, T/C [25]: 91.8% | viability, T/C [26]: 100% | viability, T/C [27]: 94.3% | viability, T/C [28]: 91.2% | viability, T/C [29]: 30.9% | viability, T/C [30]: 88.7% | viability, T/C [31]: 82.5% | viability, T/C [32]: 95.3% | viability, T/C [33]: 92.5% | viability, T/C [34]: 85.7% | viability, T/C [35]: 25.5%

CC(C)CC(NC(=O)C(Cc1ccccc1)NC(=O)c1cnccn1)B(O)O (configuration not stated) + Cc1cncc(-c2nc(NCCc3c[nH]c4ccccc34)c3ncn(C(C)C)c3n2)c1
IC50 [1]: 0.0158 µM | IC50 [2]: 0.0158 µM | IC50 [3]: 0.0164 µM | IC50 [4]: 0.0124 µM | IC50 [5]: < 0.000949 µM | viability, T/C (second compound 0.1 µM, first compound 0.000949 µM): 103% | viability, T/C (second compound 0.1 µM, first compound 0.003 µM): 108% | viability, T/C (second compound 0.1 µM, first compound 0.00949 µM): 88.1% | viability, T/C (second compound 0.1 µM, first compound 0.03 µM): 1.86% | viability, T/C (second compound 0.1 µM, first compound 0.0949 µM): 0.49% | viability, T/C (second compound 0.1 µM, first compound 0.3 µM): 0.14% | viability, T/C (second compound 0.316 µM, first compound 0.000949 µM): 131% | viability, T/C (second compound 0.316 µM, first compound 0.003 µM): 120% | viability, T/C (second compound 0.316 µM, first compound 0.00949 µM): 89.1% | viability, T/C (second compound 0.316 µM, first compound 0.03 µM): 0.33% | viability, T/C (second compound 0.316 µM, first compound 0.0949 µM): 0.05% | viability, T/C (second compound 0.316 µM, first compound 0.3 µM): 0.12% | viability, T/C (second compound 1 µM, first compound 0.000949 µM): 97.3% | viability, T/C (second compound 1 µM, first compound 0.003 µM): 107% | viability, T/C (second compound 1 µM, first compound 0.00949 µM): 95.2% | viability, T/C (second compound 1 µM, first compound 0.03 µM): 0.51% | viability, T/C (second compound 1 µM, first compound 0.0949 µM): 0.15% | viability, T/C (second compound 1 µM, first compound 0.3 µM): 0.11% | viability, T/C (second compound 3.16 µM, first compound 0.000949 µM): 102% | viability, T/C (second compound 3.16 µM, first compound 0.003 µM): 116% | viability, T/C (second compound 3.16 µM, first compound 0.00949 µM): 65.1% | viability, T/C (second compound 3.16 µM, first compound 0.03 µM): 0.66% | viability, T/C (second compound 3.16 µM, first compound 0.0949 µM): 0.05% | viability, T/C (second compound 3.16 µM, first compound 0.3 µM): 0.13% | viability, T/C (second compound 10 µM, first compound 0.000949 µM): 44.9% | viability, T/C (second compound 10 µM, first compound 0.003 µM): 53.5% | viability, T/C (second compound 10 µM, first compound 0.00949 µM): 1.63% | viability, T/C (second compound 10 µM, first compound 0.03 µM): 0.26% | viability, T/C (second compound 10 µM, first compound 0.0949 µM): 0.13% | viability, T/C (second compound 10 µM, first compound 0.3 µM): 0.2%

CC(C)c1c(-c2ccccc2)nc2c(C#N)c[nH]n2c1=O + CC(CO)NC(=O)c1cc(-c2ccc(Cl)cc2)nn(-c2cnn(C)c2)c1=O
IC50 [1]: > 10 µM | IC50 [2]: > 10 µM | IC50 [3]: > 10 µM | IC50 [4]: > 10 µM | IC50 [5]: > 10 µM | viability, T/C [6]: 95.2% | viability, T/C [7]: 93.5% | viability, T/C [8]: 88.4% | viability, T/C [9]: 95.5% | viability, T/C [10]: 89.5% | viability, T/C [11]: 79.6% | viability, T/C [12]: 99.5% | viability, T/C [13]: 100% | viability, T/C [14]: 109% | viability, T/C [15]: 92.9% | viability, T/C [16]: 99.2% | viability, T/C [17]: 91.7% | viability, T/C [18]: 104% | viability, T/C [19]: 113% | viability, T/C [20]: 105% | viability, T/C [21]: 104% | viability, T/C [22]: 86.4% | viability, T/C [23]: 93.8% | viability, T/C [24]: 92.2% | viability, T/C [25]: 85.1% | viability, T/C [26]: 91.9% | viability, T/C [27]: 89.8% | viability, T/C [28]: 87.3% | viability, T/C [29]: 95% | viability, T/C [30]: 90.2% | viability, T/C [31]: 85.1% | viability, T/C [32]: 81.8% | viability, T/C [33]: 85.5% | viability, T/C [34]: 76.9% | viability, T/C [35]: 87.3%

COc1cc(Nc2ncc3c(n2)-c2ccc(Cl)cc2C(c2c(F)cccc2OC)=NC3)ccc1C(=O)O + Cc1ccccc1N=Nc1ccc(NC(=O)c2ccnn2C)c(C)c1
IC50 [1]: > 10 µM | IC50 [2]: > 10 µM | IC50 [3]: > 10 µM | IC50 [4]: > 10 µM | IC50 [5]: > 10 µM | viability, T/C [6]: 132% | viability, T/C [7]: 125% | viability, T/C [8]: 117% | viability, T/C [9]: 107% | viability, T/C [10]: 115% | viability, T/C [11]: 120% | viability, T/C [12]: 134% | viability, T/C [13]: 119% | viability, T/C [14]: 114% | viability, T/C [15]: 108% | viability, T/C [16]: 101% | viability, T/C [17]: 117% | viability, T/C [18]: 130% | viability, T/C [19]: 123% | viability, T/C [20]: 114% | viability, T/C [21]: 107% | viability, T/C [22]: 107% | viability, T/C [23]: 117% | viability, T/C [24]: 133% | viability, T/C [25]: 118% | viability, T/C [26]: 110% | viability, T/C [27]: 103% | viability, T/C [28]: 106% | viability, T/C [29]: 114% | viability, T/C [30]: 108% | viability, T/C [31]: 104% | viability, T/C [32]: 105% | viability, T/C [33]: 96.5% | viability, T/C [34]: 93.3% | viability, T/C [35]: 102%

CC[C@@]1(O)C(=O)OCc2c1cc1n(c2=O)Cc2cc3c(CN(C)C)c(O)ccc3nc2-1
viability, T/C (compound 0.000316 µM): 100% and 99.5% and 110% | viability, T/C (compound 0.001 µM): 94.2% and 104% and 99.4% | viability, T/C (compound 0.00316 µM): 104% and 95.7% and 114% | viability, T/C (compound 0.01 µM): 118% and 68.7% and 119% | viability, T/C (compound 0.0316 µM): 106% and 37% and 119% | viability, T/C (compound 0.1 µM): 65.8% and 19.4% and 111% | IC50 (curve of compound): > 0.1 µM and 0.0196 µM
